{"source": "patent US20210369812A1", "about": "“OSTEOINDUCTIVE PEPTIDES, COMPOSITIONS, IMPLANTS, AND METHODS OF USE” (The Board of Regents of the University of Oklahoma, priority 2018, published 2021)", "test_system": "rat radial bone defect model", "test": "Rat radial bone defect model, Micro-CT", "type": "in vivo", "details": "phage-coated titanium scaffold seeded with hMSCs; 4 weeks", "protocol": "The titanium alloy scaffolds were rinsed 3 times in distilled water followed by autoclaving. The scaffolds were then coated in poly-L-lysine by soaking in 2.5 ml of poly-L-lysine per 5 scaffolds in a 24-well cell culture plate for 30 minutes. The poly-L-lysine was then discarded, and the scaffolds were allowed to dry in a sterile hood overnight. In a sterile cell culture hood, 2 scaffolds were loaded into the sterile freeze casting holder (sterilized by autoclaving). 2 ml of sterile, filtered phage solution (3×10^13 phages/ml) was pipetted into the casting holder and directly into the pores of the titanium scaffolds. The solution was allowed to incubate at room temperature for 30 minutes so that phages could stick better to the scaffold. The scaffolds and phage solution were then freeze casted in the double-sided freeze casting machine with a temperature drop of 3° C./min on the lower contact point and a constant 0° C. on the upper contact point. The final temperature for the lower contact point was −135° C. The frozen scaffold and solution were then freeze dried overnight. For cell seeding, the scaffold was then soaked overnight in cell medium followed by seeding 3.6×10^4 hMSCs onto the scaffold the next day in new medium. After 1 day of culturing, the scaffolds were implanted into the rat radial bone defect model. […]", "data": [{"sequence": "VHVPLHRGAVSA (Completely synthesized in the lab - Ph.D.-12 Phage Display Peptide Library Kit (New England Biolabs))", "values": [{"measurement": "Healing of bone defect (Micro-CT)", "result": "Increased healing was best observed"}]}]}
